# The supplement of paper PMC12463676, “Small-molecule dissolution of stress granules by redox modulation benefits ALS models” (Nature Chemical Biology, 2025)
# Compound: NC(=O)CCCCC1CCSS1 [lipoamide]
# Assay: thermal stability z-score vs DMSO; higher = more thermally stabilized by treatment
# Conditions: HeLa; lipoamide concentration 100 µM; arsenate co-treatment: 1 mM arsenate 1 h
# Description: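 Cellular thermal proteome profiling in HeLa cells. Cells were treated with 100 µM lipoamide for 1 h, with or without 1 mM arsenate for a further 1 h, then heated to ten temperatures (37-66.3 °C), and soluble protein was quantified by TMT mass spectrometry relative to 0.1% DMSO controls. The thermal stability score (sum of log2 fold changes minus the abundance score) was transformed to a z-score; mean of n = 3 experiments.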
# 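Also: each temperature applied for 3 min, abundance score taken as mean log2 fold change at the two lowest temperatures, z-score obtained by mean subtraction and division by SD.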
# Chain of UniProt Q8TAT6 (Q8TAT6 whole entry): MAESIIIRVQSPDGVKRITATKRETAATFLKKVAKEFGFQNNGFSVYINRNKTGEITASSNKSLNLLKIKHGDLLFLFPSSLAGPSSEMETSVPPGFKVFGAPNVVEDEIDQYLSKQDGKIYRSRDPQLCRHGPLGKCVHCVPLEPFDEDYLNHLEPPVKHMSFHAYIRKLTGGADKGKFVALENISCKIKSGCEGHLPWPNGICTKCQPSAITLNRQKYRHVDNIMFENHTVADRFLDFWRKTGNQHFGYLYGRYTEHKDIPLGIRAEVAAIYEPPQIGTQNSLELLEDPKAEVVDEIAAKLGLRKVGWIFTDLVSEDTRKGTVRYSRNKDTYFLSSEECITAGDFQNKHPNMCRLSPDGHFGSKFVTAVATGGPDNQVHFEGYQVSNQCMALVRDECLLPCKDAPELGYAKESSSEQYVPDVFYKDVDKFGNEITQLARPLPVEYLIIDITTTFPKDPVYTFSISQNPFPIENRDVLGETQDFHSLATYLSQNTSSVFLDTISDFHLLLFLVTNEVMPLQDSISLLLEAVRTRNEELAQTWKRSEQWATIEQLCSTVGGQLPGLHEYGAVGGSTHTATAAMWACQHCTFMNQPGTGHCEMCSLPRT
# Chain of UniProt Q00839 (Q00839 whole entry): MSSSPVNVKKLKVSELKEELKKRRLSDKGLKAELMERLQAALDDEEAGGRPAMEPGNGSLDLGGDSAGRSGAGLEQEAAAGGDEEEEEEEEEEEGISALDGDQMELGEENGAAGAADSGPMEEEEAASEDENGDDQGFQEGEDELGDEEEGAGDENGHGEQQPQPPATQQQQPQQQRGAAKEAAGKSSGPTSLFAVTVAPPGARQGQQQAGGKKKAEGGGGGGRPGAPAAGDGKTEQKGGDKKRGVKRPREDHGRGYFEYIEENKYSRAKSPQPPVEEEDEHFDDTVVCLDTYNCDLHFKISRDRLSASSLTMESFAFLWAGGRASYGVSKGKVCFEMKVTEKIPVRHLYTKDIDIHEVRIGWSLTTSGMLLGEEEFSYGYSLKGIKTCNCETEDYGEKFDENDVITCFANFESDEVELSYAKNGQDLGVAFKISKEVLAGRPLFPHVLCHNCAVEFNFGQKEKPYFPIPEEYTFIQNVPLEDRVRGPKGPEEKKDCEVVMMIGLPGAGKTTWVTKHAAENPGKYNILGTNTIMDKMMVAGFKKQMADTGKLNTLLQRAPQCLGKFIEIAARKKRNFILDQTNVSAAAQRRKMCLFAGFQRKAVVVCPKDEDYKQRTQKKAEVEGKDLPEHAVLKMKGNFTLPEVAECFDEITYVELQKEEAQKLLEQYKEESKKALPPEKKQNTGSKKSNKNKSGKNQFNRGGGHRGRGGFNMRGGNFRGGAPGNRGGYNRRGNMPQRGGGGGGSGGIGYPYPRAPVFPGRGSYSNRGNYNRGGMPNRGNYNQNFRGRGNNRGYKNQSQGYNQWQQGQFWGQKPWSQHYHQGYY
# Chain of UniProt P05455 (P05455 whole entry): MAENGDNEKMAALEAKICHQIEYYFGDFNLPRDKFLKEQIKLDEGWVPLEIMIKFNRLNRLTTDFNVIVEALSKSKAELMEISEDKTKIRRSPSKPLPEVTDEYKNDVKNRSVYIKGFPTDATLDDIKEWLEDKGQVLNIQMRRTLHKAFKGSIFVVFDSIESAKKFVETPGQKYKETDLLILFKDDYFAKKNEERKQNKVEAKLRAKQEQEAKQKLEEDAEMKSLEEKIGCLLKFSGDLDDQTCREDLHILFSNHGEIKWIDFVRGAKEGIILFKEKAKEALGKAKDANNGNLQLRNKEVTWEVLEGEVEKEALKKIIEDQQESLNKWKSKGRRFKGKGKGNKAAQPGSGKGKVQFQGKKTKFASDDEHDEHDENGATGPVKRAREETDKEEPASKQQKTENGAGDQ
# Chain of UniProt Q13185 (Q13185 whole entry): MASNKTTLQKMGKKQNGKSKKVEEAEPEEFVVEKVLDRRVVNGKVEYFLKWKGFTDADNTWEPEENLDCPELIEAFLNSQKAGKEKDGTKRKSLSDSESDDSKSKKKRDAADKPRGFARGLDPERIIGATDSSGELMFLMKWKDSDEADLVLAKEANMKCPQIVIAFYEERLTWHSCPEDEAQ
# Chain of UniProt Q8IXQ4 (Q8IXQ4 whole entry): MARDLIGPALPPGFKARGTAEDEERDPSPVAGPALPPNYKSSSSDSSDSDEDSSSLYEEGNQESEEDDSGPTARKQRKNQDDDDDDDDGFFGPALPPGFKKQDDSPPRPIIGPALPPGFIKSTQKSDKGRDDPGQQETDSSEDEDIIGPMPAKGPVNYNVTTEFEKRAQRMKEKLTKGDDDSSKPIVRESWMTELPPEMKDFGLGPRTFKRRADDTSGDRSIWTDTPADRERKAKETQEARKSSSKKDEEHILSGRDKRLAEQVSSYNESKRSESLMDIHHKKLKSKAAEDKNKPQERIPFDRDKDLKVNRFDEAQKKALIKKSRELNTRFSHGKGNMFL
# Chain of UniProt P05362 (P05362 whole entry): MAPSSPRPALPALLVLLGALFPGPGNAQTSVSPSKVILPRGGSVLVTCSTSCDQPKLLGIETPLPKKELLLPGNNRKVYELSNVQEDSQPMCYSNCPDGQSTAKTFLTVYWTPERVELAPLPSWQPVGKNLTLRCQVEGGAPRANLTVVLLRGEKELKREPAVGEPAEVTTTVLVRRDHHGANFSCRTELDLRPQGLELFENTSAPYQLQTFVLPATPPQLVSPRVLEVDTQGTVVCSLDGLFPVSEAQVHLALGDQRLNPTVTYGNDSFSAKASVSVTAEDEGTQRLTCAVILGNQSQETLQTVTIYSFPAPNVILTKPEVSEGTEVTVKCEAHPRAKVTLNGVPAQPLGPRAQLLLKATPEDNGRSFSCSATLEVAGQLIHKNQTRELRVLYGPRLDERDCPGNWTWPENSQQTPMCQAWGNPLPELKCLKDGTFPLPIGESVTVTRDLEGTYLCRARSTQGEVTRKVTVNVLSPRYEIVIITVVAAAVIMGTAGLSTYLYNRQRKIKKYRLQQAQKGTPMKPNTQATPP
# Chain of UniProt Q9H1E3 (Q9H1E3 whole entry): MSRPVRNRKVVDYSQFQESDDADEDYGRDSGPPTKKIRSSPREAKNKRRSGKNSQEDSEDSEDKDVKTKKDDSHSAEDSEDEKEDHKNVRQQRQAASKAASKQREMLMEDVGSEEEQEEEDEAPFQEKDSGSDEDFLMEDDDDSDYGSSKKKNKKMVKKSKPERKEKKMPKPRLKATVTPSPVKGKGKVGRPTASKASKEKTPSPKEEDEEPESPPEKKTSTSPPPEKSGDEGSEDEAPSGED
# Chain of UniProt Q7Z6B7 (Q7Z6B7 whole entry): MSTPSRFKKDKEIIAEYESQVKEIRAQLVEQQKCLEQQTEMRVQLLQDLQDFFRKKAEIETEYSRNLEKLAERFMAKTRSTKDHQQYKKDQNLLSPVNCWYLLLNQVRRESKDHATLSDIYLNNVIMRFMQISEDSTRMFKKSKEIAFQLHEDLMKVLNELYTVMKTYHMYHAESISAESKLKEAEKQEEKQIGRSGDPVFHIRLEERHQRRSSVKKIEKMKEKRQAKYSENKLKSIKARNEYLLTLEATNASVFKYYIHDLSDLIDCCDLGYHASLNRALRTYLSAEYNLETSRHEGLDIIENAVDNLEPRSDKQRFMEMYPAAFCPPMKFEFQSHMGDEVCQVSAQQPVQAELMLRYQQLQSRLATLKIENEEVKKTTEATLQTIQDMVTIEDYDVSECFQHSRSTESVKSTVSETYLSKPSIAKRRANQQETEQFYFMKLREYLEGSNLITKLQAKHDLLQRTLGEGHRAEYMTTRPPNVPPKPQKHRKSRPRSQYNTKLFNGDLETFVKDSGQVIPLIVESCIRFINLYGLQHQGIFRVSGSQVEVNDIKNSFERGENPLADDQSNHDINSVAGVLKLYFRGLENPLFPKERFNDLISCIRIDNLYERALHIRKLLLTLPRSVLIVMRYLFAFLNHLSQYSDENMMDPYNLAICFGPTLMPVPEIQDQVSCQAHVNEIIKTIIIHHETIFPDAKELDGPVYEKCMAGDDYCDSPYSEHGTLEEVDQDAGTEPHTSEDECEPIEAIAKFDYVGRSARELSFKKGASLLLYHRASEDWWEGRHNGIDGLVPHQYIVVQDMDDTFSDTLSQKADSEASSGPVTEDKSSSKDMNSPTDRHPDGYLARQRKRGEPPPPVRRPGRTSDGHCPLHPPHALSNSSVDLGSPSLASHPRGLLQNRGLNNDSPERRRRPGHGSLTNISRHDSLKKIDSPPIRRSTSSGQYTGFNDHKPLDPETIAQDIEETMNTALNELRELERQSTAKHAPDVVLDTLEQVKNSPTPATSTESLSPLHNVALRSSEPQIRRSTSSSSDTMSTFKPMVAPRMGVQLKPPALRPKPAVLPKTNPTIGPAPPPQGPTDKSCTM
# Chain of UniProt Q5SQN1 (Q5SQN1 whole entry): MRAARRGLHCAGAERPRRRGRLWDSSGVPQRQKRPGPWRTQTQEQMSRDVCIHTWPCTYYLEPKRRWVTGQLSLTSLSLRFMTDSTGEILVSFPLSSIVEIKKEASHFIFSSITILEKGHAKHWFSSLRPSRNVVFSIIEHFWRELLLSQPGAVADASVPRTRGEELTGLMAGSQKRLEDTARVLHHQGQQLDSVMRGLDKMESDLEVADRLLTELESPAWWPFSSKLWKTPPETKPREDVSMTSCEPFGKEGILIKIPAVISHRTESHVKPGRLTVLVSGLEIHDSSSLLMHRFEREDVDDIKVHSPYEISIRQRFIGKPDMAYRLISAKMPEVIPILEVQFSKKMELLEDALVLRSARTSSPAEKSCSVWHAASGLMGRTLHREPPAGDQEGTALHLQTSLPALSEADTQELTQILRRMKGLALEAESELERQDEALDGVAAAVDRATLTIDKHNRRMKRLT
# Chain of UniProt Q9GZP8 (Q9GZP8 whole entry): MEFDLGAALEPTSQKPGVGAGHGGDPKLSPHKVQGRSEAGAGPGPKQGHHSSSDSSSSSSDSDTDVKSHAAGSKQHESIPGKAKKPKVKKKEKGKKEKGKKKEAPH
# Chain of UniProt O60830 (O60830 whole entry): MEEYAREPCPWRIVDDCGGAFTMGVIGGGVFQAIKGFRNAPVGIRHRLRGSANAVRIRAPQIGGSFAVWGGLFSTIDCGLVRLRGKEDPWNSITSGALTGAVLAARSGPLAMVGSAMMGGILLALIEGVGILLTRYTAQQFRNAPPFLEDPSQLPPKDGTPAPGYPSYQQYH
row,Target,thermal stability z-score
1,DDX5 (UniProt P17844),0.954
2,PIK3R3 (UniProt Q92569),0.191
3,TIMM44 (UniProt O43615),0.147
4,DECR1 (UniProt Q16698),-0.133
5,BRAF (UniProt P15056),-0.207
6,TPM1 (UniProt P09493),0.347
7,HNRNPU (UniProt Q00839),0.572
8,GNA11 (UniProt P29992),0.729
9,CRIM1 (UniProt Q9NZV1),-2.84
10,GNE (UniProt Q9Y223),0.652
11,ICAM1 (UniProt P05362),0.33
12,SYNJ1 (UniProt O43426),0.305
13,HAUS3 (UniProt Q68CZ6),-0.112
14,SNAP25 (UniProt P60880),0.86
15,IMUP (UniProt Q9GZP8),-0.123
16,NUCKS1 (UniProt Q9H1E3),0.697
17,PNISR (UniProt Q8TF01),1.06
18,NPLOC4 (UniProt Q8TAT6),-0.0676

row,Target,thermal stability z-score
1,SNAP47 (UniProt Q5SQN1),-0.303
2,EDIL3 (UniProt O43854),-0.15
3,HENMT1 (UniProt Q5T8I9),-0.37
4,SPATA5L1 (UniProt Q9BVQ7),0.441
5,RILPL1 (UniProt Q5EBL4),0.571
6,ISG20L2 (UniProt Q9H9L3),-0.0445
7,TIMM17B (UniProt O60830),0.0946
8,SRGAP1 (UniProt Q7Z6B7),-0.0604
9,MRPS21 (UniProt P82921),-0.28
10,TNIP1 (UniProt Q15025),-0.261
11,HMGB1 (UniProt P09429),0.26
12,ARSA (UniProt P15289),0.254
13,GPALPP1 (UniProt Q8IXQ4),-0.0123
14,SSB (UniProt P05455),-0.542
15,MRPS14 (UniProt O60783),-0.722
16,CBX3 (UniProt Q13185),0.366
17,KIAA0368|ECM29,-0.212
18,CDC42BPA (UniProt Q5VT25),0.504

# Same assay, conditions: HeLa; lipoamide concentration 100 µM; arsenate co-treatment: none
row,Target,thermal stability z-score
1,NDUFV2 (UniProt P19404),-0.0827
2,PCID2 (UniProt Q5JVF3),0.217
3,CSF2RA (UniProt P15509),0.365
4,NUP107 (UniProt P57740),-0.0082
5,TMTC3 (UniProt Q6ZXV5),-0.796
6,FGFR1OP (UniProt O95684),-0.0584
7,MTERF3 (UniProt Q96E29),0.034
8,ELF1 (UniProt P32519),-0.185
9,HINT1 (UniProt P49773),0.532
10,EML1 (UniProt O00423),0.15
11,CYSTM1 (UniProt Q9H1C7),0.912
12,GMPPB (UniProt Q9Y5P6),-0.625
13,NDUFS1 (UniProt P28331),0.134
14,RNF4 (UniProt P78317),-0.848
15,KIF1C (UniProt O43896),0.0165
16,ECSIT (UniProt Q9BQ95),-0.221
17,POLR3G (UniProt O15318),-0.505
18,ID1 (UniProt P41134),0.0434
19,RNF169 (UniProt Q8NCN4),0.0354
20,EDEM2 (UniProt Q9BV94),0.234
21,SH3BP4 (UniProt Q9P0V3),0.0993
22,CTAG2 (UniProt O75638),0.0387
23,MCCC2 (UniProt Q9HCC0),0.156
24,SEC13 (UniProt P55735),0.46

row,Target,thermal stability z-score
1,GLYR1 (UniProt Q49A26),-0.0315
2,ITGB1 (UniProt P05556),-0.431
3,PCBD1 (UniProt P61457),0.492
4,FAM120C (UniProt Q9NX05),-0.0122
5,EXOC7 (UniProt Q9UPT5),-0.435
6,LGALS3 (UniProt P17931),0.918
7,TOMM40 (UniProt O96008),0.961
8,UNC119 (UniProt Q13432),0.106
9,CPSF3 (UniProt Q9UKF6),-0.0907
10,TOR1A (UniProt O14656),-3.08
11,REXO2 (UniProt Q9Y3B8),0.536
12,DDX5 (UniProt P17844),1.43
13,PIK3R3 (UniProt Q92569),-0.186
14,TIMM44 (UniProt O43615),0.291
15,DECR1 (UniProt Q16698),0.18
16,BRAF (UniProt P15056),0.176
17,TPM1 (UniProt P09493),0.422
18,HNRNPU (UniProt Q00839),1.39
19,GNA11 (UniProt P29992),0.404
20,CRIM1 (UniProt Q9NZV1),-1.95
21,GNE (UniProt Q9Y223),0.274
22,ICAM1 (UniProt P05362),-0.273
23,SYNJ1 (UniProt O43426),-0.14
24,HAUS3 (UniProt Q68CZ6),-0.176

row,Target,thermal stability z-score
1,SNAP25 (UniProt P60880),0.512
2,IMUP (UniProt Q9GZP8),-0.141
3,NUCKS1 (UniProt Q9H1E3),0.845
4,PNISR (UniProt Q8TF01),0.149
5,NPLOC4 (UniProt Q8TAT6),0.0243
6,SNAP47 (UniProt Q5SQN1),-0.252
7,EDIL3 (UniProt O43854),-0.528
8,HENMT1 (UniProt Q5T8I9),-0.0316
9,SPATA5L1 (UniProt Q9BVQ7),0.172
10,RILPL1 (UniProt Q5EBL4),0.0309
11,ISG20L2 (UniProt Q9H9L3),-0.0231
12,TIMM17B (UniProt O60830),-0.362
13,SRGAP1 (UniProt Q7Z6B7),-0.163
14,MRPS21 (UniProt P82921),-0.78
15,TNIP1 (UniProt Q15025),-0.828
16,HMGB1 (UniProt P09429),0.59
17,ARSA (UniProt P15289),0.195
18,GPALPP1 (UniProt Q8IXQ4),0.162
19,SSB (UniProt P05455),0.233
20,MRPS14 (UniProt O60783),-0.574
21,CBX3 (UniProt Q13185),0.43
22,KIAA0368|ECM29,0.501
23,CDC42BPA (UniProt Q5VT25),0.561
